Assays:
[1] = in vitro; conditions: human, mt-2 cells
Description: Cell viability was determined by the metabolism of the tetrazolium dye, XTT, 3,3'-[1-[phenylamino)carbonyl]-3,4-tetrazolium]bis-(4-methoxy-6-nitrobenzene-sulfonic acid(Sigma)(Scudiero et al., Cancer Res. 48:4827-4833 (1988)). In this assay metabolically active cells transform the tetrazolium dye, XTT, to a soluble colored formazan product. Microtiter plates (96 wells) were seeded with 1×10^5 cells/well and graded concentrations of test compounds in RPMI 1640 plus 5% FCS. Cells (MT-2) were allowed to grow at 36° C. in the presence of compounds for 3 days. To each well was added 0.05 ml of 1 mg XTT/ml in phosphate buffered saline (PBS) containing 0.025 mM phenazine methosulfate. Plates were incubated an additional four hours at 36° C. and the A450 was determined. The absorption was proportional to the number of viable cells in the well. The concentration of compound which produced a 50% reduction in the number of viable cells was designated the TC50.
In order to determine how these combinations affect cell viability, a cytotoxicity assay was conducted on combinations of the two compounds over the range 0.3-100 μg/ml and the TC50 s calculated.

[2] = AZT treatment of HIV positive individuals; cited from earlier work
[3] = tested on: HIV strains; conditions: time of AZT treatment after which resistant strains observed; cited from earlier work

Cc1cn([C@H]2C[C@H](N=[N+]=[N-])[C@@H](CO)O2)c(=O)[nH]c1=O [AZT, 3'-azido-3'-deoxythymidine]
CC50 at 72 h [1]: > 100 µg/mL
Toxicity [2]: frequently toxic, causing bone marrow suppression resulting in anemia, leukopenia and thrombocytopenia
AZT-resistant HIV strains observed [3]: six
